Data taken from publication PMC8640094, “Diaportones A–C: Three New Metabolites From Endophytic Fungus Diaporthe foeniculina BZM-15” (Frontiers in Chemistry, 2021).

Experiments:
[1] = tested on: normal cell line LX-2; experiment: MTT cytotoxicity assay, normal cell line LX-2; assay type: cell-based; details: for inhibition at 1 µM / inhibition at 2 µM / inhibition at 4 µM / inhibition at 8 µM / inhibition at 16 µM / inhibition at 32 µM / inhibition at 64 µM / inhibition at 128 µM / IC50: 72 h; for inhibition at 1 µM: LX-2, c 1.00 μM; for inhibition at 1 µM / inhibition at 2 µM / inhibition at 4 µM / inhibition at 8 µM / inhibition at 16 µM / inhibition at 32 µM / inhibition at 64 µM / inhibition at 128 µM: three replicates; for inhibition at 2 µM: LX-2, c 2.00 μM; for inhibition at 4 µM: LX-2, c 4.00 μM; for inhibition at 8 µM: LX-2, c 8.00 μM; for inhibition at 16 µM: LX-2, c 16.00 μM; for inhibition at 32 µM: LX-2, c 32.00 μM; for inhibition at 64 µM: LX-2, c 64.00 μM; for inhibition at 128 µM: LX-2, c 128.00 μM; for IC50: MTT, mean ± SD (n = 3); for activity on the normal cell line LX-2: in words
Protocol: (§1) The cytotoxicity of all compounds against three human tumor cell lines, SF-268 (CNS cancer), MCF-7 (breast cancer), and HepG2 (hepatoma cancer), and normal cell line LX-2 was tested using the MTT assay. […] All cells were seeded into 96-well plates at 5 × 10^4 cells/ml and incubated at 37°C under a 5% CO2 atmosphere for 24 h. Then, the tested compounds were added. After 72 h, MTT solution was added into each well, which was further incubated. The cell-free supernatant was removed and formazan crystals were subsequently dissolved in DMSO. Optical density (OD) was recorded at 490 nm on a microplate reader to calculate the IC50 values.

[2] = tested on: HepG2 (hepatoma cancer); experiment: MTT cytotoxicity assay, HepG2 cells; assay type: cell-based, human; details: Homo sapiens; for inhibition at 1 µM / inhibition at 2 µM / inhibition at 4 µM / inhibition at 8 µM / inhibition at 16 µM / inhibition at 32 µM / inhibition at 64 µM / inhibition at 128 µM: HepG2, 72 h, three replicates, read-out: cell inhibition; for inhibition at 1 µM: HepG2, c 1.00 μM; for inhibition at 2 µM: HepG2, c 2.00 μM; for inhibition at 4 µM: HepG2, c 4.00 μM; for inhibition at 8 µM: HepG2, c 8.00 μM; for inhibition at 16 µM: HepG2, c 16.00 μM; for inhibition at 32 µM: HepG2, c 32.00 μM; for inhibition at 64 µM: HepG2, c 64.00 μM; for inhibition at 128 µM: HepG2, c 128.00 μM; for IC50: HepG2, MTT, 72 h, mean ± SD (n = 3)
Protocol: (§2) The cytotoxicity of all compounds against three human tumor cell lines, SF-268 (CNS cancer), MCF-7 (breast cancer), and HepG2 (hepatoma cancer), and normal cell line LX-2 was tested using the MTT assay. Adriamycin was used as a positive control. All cells were seeded into 96-well plates at 5 × 10^4 cells/ml and incubated at 37°C under a 5% CO2 atmosphere for 24 h. Then, the tested compounds were added. After 72 h, MTT solution was added into each well, which was further incubated. The cell-free supernatant was removed and formazan crystals were subsequently dissolved in DMSO. Optical density (OD) was recorded at 490 nm on a microplate reader to calculate the IC50 values.

[3] = tested on: SF-268 (CNS cancer); experiment: MTT cytotoxicity assay, SF-268 cells; assay type: cell-based, human; details: Homo sapiens; for inhibition at 1 µM / inhibition at 2 µM / inhibition at 4 µM / inhibition at 8 µM / inhibition at 16 µM / inhibition at 32 µM / inhibition at 64 µM / inhibition at 128 µM: SF-268, 72 h, SF268 cells, triplicate values, read-out: cell inhibition; for inhibition at 1 µM: c 1.00 μM; for inhibition at 2 µM: c 2.00 μM; for inhibition at 4 µM: c 4.00 μM; for inhibition at 8 µM: c 8.00 μM; for inhibition at 16 µM: c 16.00 μM; for inhibition at 32 µM: c 32.00 μM; for inhibition at 64 µM: c 64.00 μM; for inhibition at 128 µM: c 128.00 μM; for IC50: SF-268, MTT, 72 h, mean ± SD (n = 3), read-out: IC50 SF268
Protocol: as §2

[4] = tested on: MCF-7 (breast cancer); experiment: MTT cytotoxicity assay, MCF-7 cells; assay type: cell-based, human; details: Homo sapiens; for inhibition at 1 µM / inhibition at 2 µM / inhibition at 4 µM / inhibition at 8 µM / inhibition at 16 µM / inhibition at 32 µM / inhibition at 64 µM / inhibition at 128 µM: MCF7, 72 h, three replicates, read-out: cell inhibition; for inhibition at 1 µM: MCF-7, c 1.00 μM; for inhibition at 2 µM: MCF-7, c 2.00 μM; for inhibition at 4 µM: MCF-7, c 4.00 μM; for inhibition at 8 µM: MCF-7, c 8.00 μM; for inhibition at 16 µM: MCF-7, c 16.00 μM; for inhibition at 32 µM: MCF-7, c 32.00 μM; for inhibition at 64 µM: MCF-7, c 64.00 μM; for inhibition at 128 µM: MCF-7, c 128.00 μM; for IC50: MCF7, MTT, 72 h, mean ± SD (n = 3)
Protocol: as §1

[5] = tested on: three human cancer cell lines (SF-268, MCF-7, and HepG2); experiment: MTT cytotoxicity, summary over three human cancer cell lines; assay type: cell-based; details: for IC50: Homo sapiens, read-out: IC50 values, range over three cell lines
Protocol: as §2

Row | Structure (SMILES) | inhibition at 1 µM [1] [%] | inhibition at 2 µM [1] [%] | inhibition at 4 µM [1] [%] | inhibition at 8 µM [1] [%] | inhibition at 16 µM [1] [%] | inhibition at 32 µM [1] [%] | inhibition at 64 µM [1] [%] | inhibition at 128 µM [1] [%] | IC50 [1] [µM] | inhibition at 1 µM [2] [%] | inhibition at 2 µM [2] [%] | inhibition at 4 µM [2] [%] | inhibition at 8 µM [2] [%] | inhibition at 16 µM [2] [%] | inhibition at 32 µM [2] [%] | inhibition at 64 µM [2] [%] | inhibition at 128 µM [2] [%] | IC50 [2] [µM] | inhibition at 1 µM [3] [%] | inhibition at 2 µM [3] [%] | other results
1 | CC(C)[C@@H](C)/C=C/[C@@H](C)[C@H]1CCC(=O)[C@]23CC(=O)C4=CC(=O)CC[C@]4(C)[C@H]2CC[C@]13C [compound 7, dankasterone A] | 14.7 | 18.4 | 26.4 | 31.4 | 33.1 | 43.2 | 81.3 | 92.6 | > 40 | 31.1 | 39.6 | 49 | 76.9 | 83.3 | 98 | 99 | 98.5 | 4.9 ± 0.9 | 16.3 | 31.1 | activity on the normal cell line LX-2 [1]: not active; inhibition at 4 µM [3]: 46.5%; inhibition at 8 µM [3]: 58.4%; inhibition at 16 µM [3]: 69.7%; inhibition at 32 µM [3]: 90.9%; inhibition at 64 µM [3]: 96.1%; inhibition at 128 µM [3]: 99.2%; IC50 [3]: 6.7 ± 0.7 µM; inhibition at 1 µM [4]: 35.5%; inhibition at 2 µM [4]: 47.2%; inhibition at 4 µM [4]: 64.9%; inhibition at 8 µM [4]: 72.1%; inhibition at 16 µM [4]: 81%; inhibition at 32 µM [4]: 98.2%; inhibition at 64 µM [4]: 97.5%; inhibition at 128 µM [4]: 98.3%; IC50 [4]: 3.6 ± 1.1 µM; cell inhibition against three human cancer cell lines, in words [5]: good cell inhibition; IC50 [5]: 3.6 to 15.8 µM
2 | CC(C)[C@@H](C)C=C[C@@H](C)[C@H]1CC[C@@]2(O)C3=CC(=O)C4=CC(=O)CC[C@]4(C)[C@H]3CC[C@]12C [compound 8, 14α-hydroxyergosta-4,7,22-triene-3,6-dione] | 13.6 | 19.2 | 28 | 35.9 | 41.6 | 48.5 | 73.4 | 90.3 | > 40 | 20.3 | 27.1 | 34.1 | 46.7 | 58.6 | 78.4 | 89 | 94.3 | 15.8 ± 1.3 | 21.4 | 30.2 | activity on the normal cell line LX-2 [1]: not active; inhibition at 4 µM [3]: 44.3%; inhibition at 8 µM [3]: 46.8%; inhibition at 16 µM [3]: 81.4%; inhibition at 32 µM [3]: 85.3%; inhibition at 64 µM [3]: 92.4%; inhibition at 128 µM [3]: 97.3%; IC50 [3]: 8.3 ± 0.5 µM; inhibition at 1 µM [4]: 21.5%; inhibition at 2 µM [4]: 26.3%; inhibition at 4 µM [4]: 35.6%; inhibition at 8 µM [4]: 47.3%; inhibition at 16 µM [4]: 72.4%; inhibition at 32 µM [4]: 89.1%; inhibition at 64 µM [4]: 97.3%; inhibition at 128 µM [4]: 96.2%; IC50 [4]: 11.4 ± 0.3 µM; cell inhibition against three human cancer cell lines, in words [5]: good cell inhibition; IC50 [5]: 3.6 to 15.8 µM
3 | CC(C)[C@@H](C)/C=C/[C@@H](C)C1CCC2C3=CC(=O)OC4=CC(=O)CC[C@]4(C)C3CC[C@@]21C (stereo partly drawn) [compound 9, fortisterol] | 9.02 | 13.6 | 18.5 | 25.5 | 31.9 | 44.7 | 79.3 | 82.5 | > 40 | 5.37 | 11.1 | 15.3 | 20.5 | 31.6 | 48.2 | 75.7 | 89.3 | > 40 | 8.97 | 14.6 | inhibition at 4 µM [3]: 19.2%; inhibition at 8 µM [3]: 24.9%; inhibition at 16 µM [3]: 30.3%; inhibition at 32 µM [3]: 45.1%; inhibition at 64 µM [3]: 80.5%; inhibition at 128 µM [3]: 82.4%; IC50 [3]: > 40 µM; inhibition at 1 µM [4]: 6.87%; inhibition at 2 µM [4]: 14.1%; inhibition at 4 µM [4]: 17.4%; inhibition at 8 µM [4]: 21.5%; inhibition at 16 µM [4]: 31.4%; inhibition at 32 µM [4]: 43.2%; inhibition at 64 µM [4]: 76.1%; inhibition at 128 µM [4]: 86.4%; IC50 [4]: > 40 µM
